Test results as given in patent US5908824A, “Nasally administrable compositions containing physiologically active peptides” (Dott Research Laboratory, priority 1995, dated 1999).

Test system: blood sugar
Test: Test Example 1: average fall of the blood sugar in rabbits after insulin
Format: in vivo, New Zealand rabbits
Conditions: subcutaneous 2 IU/rabbit, level at 0 min = 100%
Protocol: The composition contained insulin at […] (5 insulin units (IU)/rabbit).
The composition was nasally administered to six male New Zealand rabbits at one time, and the average fall of the blood sugar was measured at 0, 15, 30, 60, 120 and 180 min after administration.
For comparison, 2 IU/rabbit of insulin was subcutaneously injected to six male New Zealand rabbits and the average fall of the blood sugar was measured at 0, 60, 120, 240, and 360 min after administration.
The results are shown in Table 1, in which the average fall of the blood sugar is indicated in percentage assuming the blood sugar level at 0 min to be 100%.

insulin [Control]
Blood sugar level (% of 0-min level) (0 min after administration): 100%
Blood sugar level (% of 0-min level) (60 min after administration): 57%
Blood sugar level (% of 0-min level) (120 min after administration): 56%
Blood sugar level (% of 0-min level) (240 min after administration): 84%
Blood sugar level (% of 0-min level) (360 min after administration): 94%
